Holding throughout (experiment): KinomeScan profiling
Format in all cases: binding

Experiment [1] addresses T1, ABL1(T315I)-nonphosphorylated (Homo sapiens, UniProt P00519, T315I).
T1 construct: purchased KinomeScan®
Particulars: read-out: % control. A digest of the protocol: (§1)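 Compounds were screened at 1 μM in DMSO across a 468-kinase KinomeScan panel. Binding was expressed as % control, scaled between a positive control (0%) and DMSO (100%) using luminescence signal. A value under 35% counted as active.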

The target in the next experiment is T2, AURKC (Homo sapiens, UniProt Q9UQB9).
T2 construct: purchased KinomeScan®
T2 sequence (Q9UQB9 1-309): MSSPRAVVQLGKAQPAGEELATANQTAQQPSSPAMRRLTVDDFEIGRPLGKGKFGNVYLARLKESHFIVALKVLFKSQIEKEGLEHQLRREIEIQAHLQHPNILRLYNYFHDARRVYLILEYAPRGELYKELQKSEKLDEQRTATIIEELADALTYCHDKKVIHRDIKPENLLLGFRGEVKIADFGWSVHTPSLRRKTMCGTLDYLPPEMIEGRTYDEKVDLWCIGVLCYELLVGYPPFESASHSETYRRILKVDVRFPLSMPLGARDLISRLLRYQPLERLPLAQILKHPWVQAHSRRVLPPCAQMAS
To be noted: read-out: % control. The essentials:
as §1

Another experiment has as its target DAPK3 (Homo sapiens, UniProt O43293). To be noted: DAPK3, 1 μM; read-out: % control. A digest of the protocol:
as §1

Another experiment concerns the target T3, DCAMKL3 (Homo sapiens, UniProt Q9C098).
T3 sequence (Q9C098 1-648): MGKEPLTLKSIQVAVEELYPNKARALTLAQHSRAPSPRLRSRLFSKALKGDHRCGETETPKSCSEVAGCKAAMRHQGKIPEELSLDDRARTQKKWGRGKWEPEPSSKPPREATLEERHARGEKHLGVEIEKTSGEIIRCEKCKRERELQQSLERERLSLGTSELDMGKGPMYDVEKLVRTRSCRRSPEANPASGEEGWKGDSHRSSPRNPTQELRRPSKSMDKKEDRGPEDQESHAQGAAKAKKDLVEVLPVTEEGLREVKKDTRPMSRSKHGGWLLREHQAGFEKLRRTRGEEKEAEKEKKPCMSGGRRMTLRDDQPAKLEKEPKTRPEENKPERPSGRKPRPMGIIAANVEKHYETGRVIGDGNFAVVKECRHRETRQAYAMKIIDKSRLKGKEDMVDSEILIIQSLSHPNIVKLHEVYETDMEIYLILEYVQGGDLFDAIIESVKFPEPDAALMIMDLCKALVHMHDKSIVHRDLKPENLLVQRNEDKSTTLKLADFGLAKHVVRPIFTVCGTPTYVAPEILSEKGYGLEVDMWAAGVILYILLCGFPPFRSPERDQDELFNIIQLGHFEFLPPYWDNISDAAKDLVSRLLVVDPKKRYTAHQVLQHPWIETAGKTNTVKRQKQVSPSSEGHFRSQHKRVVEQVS
Particulars: DCAMKL3, 1 μM; read-out: % control. The essentials: as §1

In a further experiment the target is EGFR(E746-A750del) (Homo sapiens, UniProt P00533, DEL746-750). Particulars: read-out: % control. The essentials: as §1
The next experiment addresses ERK4 (Homo sapiens, UniProt P31152). Particulars: ERK4, 1 μM; read-out: % control. The essentials:
as §1

Another experiment deals with FRK (Homo sapiens, UniProt P42685). Particulars: read-out: % control. The essentials:
as §1

The target in the next experiment is HPK1 (Homo sapiens, UniProt Q92918). To be noted: HPK1, 1 μM; read-out: % control. A digest of the protocol:
as §1

Another experiment addresses MAP3K1 (Homo sapiens, UniProt Q13233). To be noted: MAP3K1, 1 μM; read-out: % control. A digest of the protocol:
as §1

The target in a further experiment is MST1R (Homo sapiens, UniProt Q04912). To be noted: read-out: % control. A digest of the protocol: as §1
For a further experiment, the target named is T4, PIK3CA(H1047Y) (Homo sapiens, UniProt P42336, H1047Y).
T4 construct: purchased KinomeScan® (panel service)
To be noted: read-out: % control. A digest of the protocol: as §1

The target of the next experiment is T5, PIM2 (Homo sapiens, UniProt Q9P1W9).
T5 construct: purchased KinomeScan® (panel service)
To be noted: PIM2, 1 μM; read-out: % control. The essentials: as §1

The target of the next experiment is T6, SgK110 (Homo sapiens, UniProt P0C264).
T6 construct: purchased KinomeScan® (panel service)
T6 sequence (P0C264 1-359): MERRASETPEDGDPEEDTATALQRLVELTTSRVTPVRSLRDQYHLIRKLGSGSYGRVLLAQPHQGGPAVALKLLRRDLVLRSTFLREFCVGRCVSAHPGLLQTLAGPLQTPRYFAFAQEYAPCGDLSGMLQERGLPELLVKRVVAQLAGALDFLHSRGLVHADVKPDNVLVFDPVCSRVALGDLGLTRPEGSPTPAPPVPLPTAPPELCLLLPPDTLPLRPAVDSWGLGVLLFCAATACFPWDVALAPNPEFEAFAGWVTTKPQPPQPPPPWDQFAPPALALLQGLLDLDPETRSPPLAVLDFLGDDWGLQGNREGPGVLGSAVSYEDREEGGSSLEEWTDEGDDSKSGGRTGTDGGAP
Particulars: SgK110, 1 μM; read-out: % control. The essentials:
as §1

Another experiment has as its target TIE1 (Homo sapiens, UniProt P35590). To be noted: TIE1, 1 μM; read-out: % control. A digest of the protocol:
as §1

Molecules are shown by their SMILES.

Sequence of TIE1 (P35590 22-1138): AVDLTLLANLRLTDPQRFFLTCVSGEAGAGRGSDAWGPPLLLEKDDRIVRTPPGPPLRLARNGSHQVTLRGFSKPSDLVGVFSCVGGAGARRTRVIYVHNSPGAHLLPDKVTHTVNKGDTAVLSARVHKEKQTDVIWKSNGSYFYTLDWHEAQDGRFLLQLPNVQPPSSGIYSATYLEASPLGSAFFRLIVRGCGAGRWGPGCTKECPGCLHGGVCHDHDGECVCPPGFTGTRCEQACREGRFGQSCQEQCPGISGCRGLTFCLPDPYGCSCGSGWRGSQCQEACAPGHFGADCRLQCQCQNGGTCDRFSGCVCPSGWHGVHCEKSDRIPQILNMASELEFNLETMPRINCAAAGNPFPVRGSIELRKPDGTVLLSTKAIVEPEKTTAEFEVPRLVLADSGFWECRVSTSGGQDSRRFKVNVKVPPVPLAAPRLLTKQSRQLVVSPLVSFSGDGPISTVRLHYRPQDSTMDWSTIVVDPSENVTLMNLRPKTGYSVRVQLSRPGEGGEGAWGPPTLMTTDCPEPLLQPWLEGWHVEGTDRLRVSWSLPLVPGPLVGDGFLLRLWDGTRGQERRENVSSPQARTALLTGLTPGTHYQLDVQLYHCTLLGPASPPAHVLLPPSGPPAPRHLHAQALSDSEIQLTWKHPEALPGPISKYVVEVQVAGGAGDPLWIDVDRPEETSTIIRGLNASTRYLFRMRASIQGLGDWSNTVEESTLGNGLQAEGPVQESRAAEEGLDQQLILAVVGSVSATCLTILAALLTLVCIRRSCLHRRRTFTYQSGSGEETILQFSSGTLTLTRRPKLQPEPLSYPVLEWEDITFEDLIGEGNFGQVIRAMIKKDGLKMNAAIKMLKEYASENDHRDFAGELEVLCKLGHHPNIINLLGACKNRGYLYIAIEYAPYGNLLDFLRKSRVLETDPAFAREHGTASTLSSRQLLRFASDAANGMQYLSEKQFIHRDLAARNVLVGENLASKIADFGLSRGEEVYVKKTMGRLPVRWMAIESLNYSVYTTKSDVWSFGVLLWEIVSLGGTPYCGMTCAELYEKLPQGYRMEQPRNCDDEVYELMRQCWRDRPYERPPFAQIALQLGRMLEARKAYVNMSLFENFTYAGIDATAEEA
Sequence of DAPK3 (O43293 whole entry): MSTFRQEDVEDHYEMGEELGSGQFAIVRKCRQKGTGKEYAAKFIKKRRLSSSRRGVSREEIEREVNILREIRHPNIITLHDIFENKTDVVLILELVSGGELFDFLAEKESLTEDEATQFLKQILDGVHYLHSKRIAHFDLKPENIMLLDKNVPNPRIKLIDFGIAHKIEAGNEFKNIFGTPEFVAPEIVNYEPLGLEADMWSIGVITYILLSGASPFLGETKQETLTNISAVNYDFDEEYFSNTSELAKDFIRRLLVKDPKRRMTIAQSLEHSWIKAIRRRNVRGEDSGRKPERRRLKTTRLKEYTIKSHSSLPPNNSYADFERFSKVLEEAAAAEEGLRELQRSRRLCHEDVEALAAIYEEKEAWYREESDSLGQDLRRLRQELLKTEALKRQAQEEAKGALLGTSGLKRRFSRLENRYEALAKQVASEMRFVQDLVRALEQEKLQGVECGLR
Sequence of ERK4 (P31152 whole entry): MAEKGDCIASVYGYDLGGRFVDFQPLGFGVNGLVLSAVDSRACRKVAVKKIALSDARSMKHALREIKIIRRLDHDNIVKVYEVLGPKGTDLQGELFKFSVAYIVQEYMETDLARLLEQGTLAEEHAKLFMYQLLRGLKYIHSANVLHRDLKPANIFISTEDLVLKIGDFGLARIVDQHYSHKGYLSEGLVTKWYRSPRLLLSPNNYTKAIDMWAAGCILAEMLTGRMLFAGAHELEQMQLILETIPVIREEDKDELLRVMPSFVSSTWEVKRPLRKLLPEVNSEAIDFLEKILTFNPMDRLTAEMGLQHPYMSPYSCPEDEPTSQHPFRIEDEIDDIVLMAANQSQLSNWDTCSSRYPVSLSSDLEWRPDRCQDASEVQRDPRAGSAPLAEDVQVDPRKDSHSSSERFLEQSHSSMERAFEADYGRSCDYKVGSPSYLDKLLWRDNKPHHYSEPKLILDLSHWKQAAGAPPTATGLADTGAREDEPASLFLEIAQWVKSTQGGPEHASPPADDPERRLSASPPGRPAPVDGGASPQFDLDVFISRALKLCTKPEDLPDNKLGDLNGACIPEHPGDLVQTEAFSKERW
Sequence of FRK (P42685 whole entry): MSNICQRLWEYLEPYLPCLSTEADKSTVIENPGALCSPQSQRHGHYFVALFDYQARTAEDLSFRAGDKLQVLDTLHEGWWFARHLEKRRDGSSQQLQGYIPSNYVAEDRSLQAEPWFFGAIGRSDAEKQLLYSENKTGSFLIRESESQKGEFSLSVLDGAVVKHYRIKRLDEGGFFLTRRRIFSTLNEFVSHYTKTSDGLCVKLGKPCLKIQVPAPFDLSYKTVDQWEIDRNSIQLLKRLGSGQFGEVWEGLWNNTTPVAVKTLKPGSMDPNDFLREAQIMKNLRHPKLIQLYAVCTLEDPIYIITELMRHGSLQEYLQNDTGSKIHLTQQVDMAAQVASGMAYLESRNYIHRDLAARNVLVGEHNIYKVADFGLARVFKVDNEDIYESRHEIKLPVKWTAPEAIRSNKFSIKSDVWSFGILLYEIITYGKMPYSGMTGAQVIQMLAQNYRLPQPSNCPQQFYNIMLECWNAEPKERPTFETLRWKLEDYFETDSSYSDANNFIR
Sequence of MAP3K1 (Q13233 whole entry): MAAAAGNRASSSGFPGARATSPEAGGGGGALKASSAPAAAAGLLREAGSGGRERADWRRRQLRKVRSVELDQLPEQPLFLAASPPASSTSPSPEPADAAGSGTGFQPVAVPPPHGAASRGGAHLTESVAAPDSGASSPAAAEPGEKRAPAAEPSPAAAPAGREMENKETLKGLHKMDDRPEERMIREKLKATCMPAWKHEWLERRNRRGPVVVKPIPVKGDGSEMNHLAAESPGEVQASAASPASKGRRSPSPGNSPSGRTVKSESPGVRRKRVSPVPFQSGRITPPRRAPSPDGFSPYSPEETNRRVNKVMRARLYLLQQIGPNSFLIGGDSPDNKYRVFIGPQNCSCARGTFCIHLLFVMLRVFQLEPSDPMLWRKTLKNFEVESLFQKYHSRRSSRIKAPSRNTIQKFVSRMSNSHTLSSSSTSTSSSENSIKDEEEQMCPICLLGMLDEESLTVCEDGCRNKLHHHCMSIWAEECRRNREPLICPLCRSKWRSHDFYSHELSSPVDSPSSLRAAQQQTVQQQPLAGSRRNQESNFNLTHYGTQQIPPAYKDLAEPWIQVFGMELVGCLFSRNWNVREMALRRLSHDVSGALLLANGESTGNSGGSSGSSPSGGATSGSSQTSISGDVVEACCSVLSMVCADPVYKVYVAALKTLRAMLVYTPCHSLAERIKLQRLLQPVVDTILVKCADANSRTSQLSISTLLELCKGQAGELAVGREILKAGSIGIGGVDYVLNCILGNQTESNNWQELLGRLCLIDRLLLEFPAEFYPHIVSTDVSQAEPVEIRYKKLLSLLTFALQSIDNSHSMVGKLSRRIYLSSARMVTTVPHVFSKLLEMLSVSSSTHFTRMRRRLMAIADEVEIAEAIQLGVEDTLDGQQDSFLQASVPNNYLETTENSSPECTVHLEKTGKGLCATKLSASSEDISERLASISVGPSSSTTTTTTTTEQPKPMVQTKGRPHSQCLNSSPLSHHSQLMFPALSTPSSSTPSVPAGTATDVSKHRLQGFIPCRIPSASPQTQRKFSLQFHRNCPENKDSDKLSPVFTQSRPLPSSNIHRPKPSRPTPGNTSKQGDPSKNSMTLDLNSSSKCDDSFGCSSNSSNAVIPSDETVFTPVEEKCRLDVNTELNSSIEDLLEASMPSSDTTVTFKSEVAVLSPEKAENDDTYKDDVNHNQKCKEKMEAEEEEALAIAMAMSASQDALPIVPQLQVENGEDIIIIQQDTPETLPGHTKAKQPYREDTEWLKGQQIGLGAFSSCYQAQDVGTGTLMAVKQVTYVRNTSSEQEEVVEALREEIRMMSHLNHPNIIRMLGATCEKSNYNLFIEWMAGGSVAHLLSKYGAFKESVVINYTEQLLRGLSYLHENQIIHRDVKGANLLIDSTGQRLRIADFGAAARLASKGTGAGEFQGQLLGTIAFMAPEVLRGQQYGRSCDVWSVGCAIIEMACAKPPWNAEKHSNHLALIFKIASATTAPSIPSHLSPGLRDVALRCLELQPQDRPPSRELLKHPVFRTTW
Sequence of HPK1 (Q92918 whole entry): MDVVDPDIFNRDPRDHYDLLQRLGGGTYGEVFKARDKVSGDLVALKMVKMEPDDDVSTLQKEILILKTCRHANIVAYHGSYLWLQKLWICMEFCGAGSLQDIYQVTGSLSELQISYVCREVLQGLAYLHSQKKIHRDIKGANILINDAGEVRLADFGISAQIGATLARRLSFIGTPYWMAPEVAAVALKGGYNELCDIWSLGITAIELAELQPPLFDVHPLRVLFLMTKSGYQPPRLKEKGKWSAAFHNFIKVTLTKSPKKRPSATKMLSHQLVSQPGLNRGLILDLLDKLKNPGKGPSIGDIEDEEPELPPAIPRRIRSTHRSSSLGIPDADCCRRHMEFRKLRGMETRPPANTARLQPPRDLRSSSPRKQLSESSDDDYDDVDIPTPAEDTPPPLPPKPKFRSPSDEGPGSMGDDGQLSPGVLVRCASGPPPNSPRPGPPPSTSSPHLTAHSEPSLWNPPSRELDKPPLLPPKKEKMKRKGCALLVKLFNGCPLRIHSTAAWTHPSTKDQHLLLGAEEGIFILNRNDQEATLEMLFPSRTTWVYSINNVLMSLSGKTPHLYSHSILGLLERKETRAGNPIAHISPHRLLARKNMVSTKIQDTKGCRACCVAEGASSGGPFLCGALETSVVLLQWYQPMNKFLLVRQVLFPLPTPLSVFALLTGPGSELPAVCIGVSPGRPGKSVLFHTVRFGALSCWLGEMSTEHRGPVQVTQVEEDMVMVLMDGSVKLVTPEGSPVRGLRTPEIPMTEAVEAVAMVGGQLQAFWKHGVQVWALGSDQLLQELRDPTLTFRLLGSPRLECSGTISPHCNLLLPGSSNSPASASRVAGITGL

For `CNc1c(-c2ccc(C(=O)N3CCC(N4CCOCC4)CC3)cc2)cnc2[nH]cc(Cl)c12` [Compound 96, (4-(3-chloro-4-(methylamino)-1H-pyrrolo[2,3-b]pyridin-5-yl)phenyl)(4-morpholinopiperidin-1-yl)methanone], the remaining binding at 1 µM in experiment [1] turned out to be 100%; at AURKC, 49%; at DAPK3 it was 96%; at DCAMKL3 it was 99%; on EGFR(E746-A750del), 93%; on ERK4, 94%. Also, the remaining binding at 1 µM stood at 84% at FRK; 84% on HPK1; 73% on MAP3K1; 88% at MST1R; 84% at PIK3CA(H1047Y); 100% on PIM2. Also, the remaining binding at 1 µM was 100% at SgK110 and 93% on TIE1.

In the case of `O=C(c1ccc(-c2cnc3[nH]cc(Cl)c3c2NC2CCCC2)cc1)N1CCC(N2CCOCC2)CC1` [Compound 101, (4-(3-chloro-4-(cyclopentylamino)-1H-pyrrolo[2,3-b]pyridin-5-yl)phenyl)(4-morpholinopiperidin-1-yl)methanone], the remaining binding at 1 µM in [1] came to 85%; on AURKC, 71%; on DAPK3 it was 88%; at DCAMKL3 it was 84%; at EGFR(E746-A750del), 97%; at ERK4, 93%. Also, the remaining binding at 1 µM was found to be 100% on FRK; 53% on HPK1; 100% at MAP3K1; 77% at MST1R; 100% on PIK3CA(H1047Y); 94% at PIM2. Besides, the remaining binding at 1 µM turned out to be 100% at SgK110 and 92% at TIE1.

Consider `CNc1c(-c2cnn([C@H]3CCN(C(C)=O)C[C@@H]3F)c2)cnc2[nH]cc(Cl)c12` [Compound 77, 1-((3S,4S)-4-(4-(3-chloro-4-(methylamino)-1H-pyrrolo[2,3-b]pyridin-5-yl)-1H-pyrazol-1-yl)-3-fluoropiperidin-1-yl)ethan-1-one], for which the remaining binding at 1 µM in experiment [1] came to 100%; on AURKC it was 26%; at DAPK3 it was 79%; at DCAMKL3, 95%; on EGFR(E746-A750del), 100%; on ERK4, 90%. Besides, the remaining binding at 1 µM at FRK was found to be 100%; on HPK1, 6.7%; at MAP3K1, 56%; on MST1R it was 100%; on PIK3CA(H1047Y) it was 70%; at PIM2 it was 100%. Further, the remaining binding at 1 µM amounted to 100% at SgK110 and 97% at TIE1.

These data come from US12275731B2, “Azaindole inhibitors of wild-type and mutant forms of LRRK2” (DANA-FARBER CANCER INSTITUTE, INC., priority 2018, dated 2025).
